# Test results from article PMC8691714 (Cancer Research Communications, 2021).
# How the values were obtained:
# [1] = set-up: method as in earlier work; conditions: PBPK model parameter, ref [17, 18] and Drugbank, cited from earlier work
# [2] = set-up: method as in earlier work; conditions: PBPK model parameter, ref [17, 18] and Drugbank, cited from earlier work; remark: listed apart in the source
# [3] = set-up: method as in earlier work; conditions: PBPK model parameter, ref [17, 18] and Drugbank, cited from earlier work; remark: listed apart in the source
# BTK = test: Immunoblotting of BTK signaling in primary CLL cells; assay type: cell-based, human; conditions: ibrutinib 1 μmol/L with cobicistat 1, 10 μmol/L
# Description: Blood was drawn from patients with newly diagnosed, untreated CLL after receipt of written informed consent under a protocol approved by the Institutional Review Board of The Ohio State University (Columbus, OH) in accordance with the Declaration of Helsinki. B cells were isolated from whole blood using Rosette-Sep B (StemCell Technologies). Primary CLL cells were cultured in RPMI1640 medium supplemented with 10% FBS, 100 U/mL penicillin, 100 μg/mL streptomycin, and 2 mmol/L […]. […] After 1 hour, the cells were pelleted and resuspended in fresh media. For experiments with extended drug exposure, DMSO and cobicistat were added again after washout.
# After 15 minutes of stimulation, cell lysates were collected and analyzed by SDS-PAGE. Protein was transferred to nitrocellulose and blots were probed with primary antibodies and horseradish peroxidase (HRP)-conjugated secondary antibodies. Blots were imaged using WesternBright chemiluminescent substrate (Advansta) on an X-ray film. Phosphorylated proteins were analyzed first, then antibodies were removed using Western Blot Stripping Buffer (Thermo Fisher Scientific) before analyzing total protein. Membranes were stripped after imaging total proteins before analyzing loading control. […] Loading controls were assessed for each membrane and are presented with corresponding proteins analyzed on the same membrane.
# TMD8 cells = test: MTT viability assay, TMD8 cells, 72 hours; assay type: cell-based, human
# Description: Cell viability was assessed after 72 hours of incubation.
SMILES,pKa ([1]; acid dissociation constant),Log Po:w ([1]; octanol/water partition coefficient),B/P ratio ([2]; blood to plasma ratio),"fu, plasma ([2]; unbound drug in the plasma)",Ka [3],Clpo ([3]; oral clearance),Vss ([3]; steady-state volume of distribution),impact on ibrutinib's ability to suppress BTK signaling (BTK),"influence on the antileukemic activity of ibrutinib (TMD8 cells; cobicistat 0.1, 1 or 10 μmol/L)","influence on the antileukemic activity of ibrutinib (TMD8 cells; ketoconazole 0.1, 1 or 10 μmol/L)"
CC(C)c1nc(CN(C)C(=O)N[C@@H](CCN2CCOCC2)C(=O)N[C@H](CC[C@H](Cc2ccccc2)NC(=O)OCc2cncs2)Cc2ccccc2)cs1 [Cobicistat],6.69,4.36,0.55,0.020,Ka (1/h)= 0.29,Clpo (L/h) : 14,0.46 L/kg,did not impact,neither ketoconazole nor cobicistat negatively influenced,
CC(=O)N1CCN(c2ccc(OCC3COC(Cn4ccnc4)(c4ccc(Cl)cc4Cl)O3)cc2)CC1 (stereo not shown) [Ketoconazole],,,,,,,,,,neither ketoconazole nor cobicistat negatively influenced
